PubChem BioAssay (NCI)
Values joined by “and” are separate entries in the source; they are usually repeats but may differ in a detail not shown here. Equal values may be shown once.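 Following 48 hours of exposure in 96-well plates, responses at five concentrations were used to interpolate endpoints linearly. GI50 marks 50% less growth. TGI denotes the concentration required for complete inhibition of growth.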

Columns and labels:
Experiment in all cases: NCI tumour cell line growth inhibition, 48 h
SF-539 CNS = test system: SF-539 CNS
SK-MEL-2 melanoma = test system: SK-MEL-2 melanoma
MDA-MB-435 = test system: MDA-MB-435
RXF 393 renal = test system: RXF 393 renal
HT29 colon = test system: HT29 colon
SK-MEL-28 melanoma = test system: SK-MEL-28 melanoma
KM12 colon = test system: KM12 colon
HS 578T breast = test system: HS 578T breast
MOLT-4 leukemia = test system: MOLT-4 leukemia
SNB-19 CNS = test system: SNB-19 CNS
786-0 renal = test system: 786-0 renal
U251 CNS = test system: U251 CNS
CAKI-1 renal = test system: CAKI-1 renal
SK-MEL-5 melanoma = test system: SK-MEL-5 melanoma
K-562 leukemia = test system: K-562 leukemia
UACC-62 melanoma = test system: UACC-62 melanoma
MALME-3M melanoma = test system: MALME-3M melanoma
OVCAR-8 ovarian = test system: OVCAR-8 ovarian
NCI-H460 lung = test system: NCI-H460 lung
OVCAR-3 ovarian = test system: OVCAR-3 ovarian
SR leukemia = test system: SR leukemia
HCC-2998 colon = test system: HCC-2998 colon
NCI-H226 lung = test system: NCI-H226 lung
SK-OV-3 ovarian = test system: SK-OV-3 ovarian
RPMI-8226 leukemia = test system: RPMI-8226 leukemia
A498 renal = test system: A498 renal
SN12C renal = test system: SN12C renal
EKVX NSCLC = test system: EKVX NSCLC
OVCAR-4 ovarian = test system: OVCAR-4 ovarian
T-47D breast = test system: T-47D breast
ACHN renal = test system: ACHN renal
PC-3 prostate = test system: PC-3 prostate
HL-60(TB) leukemia = test system: HL-60(TB) leukemia
SNB-75 CNS = test system: SNB-75 CNS
IGROV1 ovarian = test system: IGROV1 ovarian
NCI/ADR-RES ovarian = test system: NCI/ADR-RES ovarian
SF-268 CNS = test system: SF-268 CNS
M14 melanoma = test system: M14 melanoma
MCF7 breast = test system: MCF7 breast
DU-145 prostate = test system: DU-145 prostate
SF-295 CNS = test system: SF-295 CNS
UACC-257 melanoma = test system: UACC-257 melanoma
HCT-116 colon = test system: HCT-116 colon
HOP-92 NSCLC = test system: HOP-92 NSCLC
MDA-N = test system: MDA-N
CCRF-CEM leukemia = test system: CCRF-CEM leukemia
SW-620 colon = test system: SW-620 colon
A549 NSCLC = test system: A549 NSCLC
NCI-H522 lung = test system: NCI-H522 lung
LOX IMVI melanoma = test system: LOX IMVI melanoma
MDA-MB-231 breast = test system: MDA-MB-231 breast
OVCAR-5 ovarian = test system: OVCAR-5 ovarian
UO-31 renal = test system: UO-31 renal
COLO 205 colon = test system: COLO 205 colon
HCT-15 colon = test system: HCT-15 colon
BT-549 breast = test system: BT-549 breast
TK-10 renal = test system: TK-10 renal
NCI-H23 lung = test system: NCI-H23 lung

Cn1c2nc3ccccc3c-2cc2ccccc21
TGI (SF-539 CNS): 16 µM and 17.5 µM
GI50 (SK-MEL-2 melanoma): 3.94 µM and 11.1 µM
TGI (SK-MEL-2 melanoma): 17.2 µM and 24 µM
TGI (MDA-MB-435): > 46.4 µM and 19 µM
GI50 (RXF 393 renal): 3.45 µM and 7.68 µM
TGI (RXF 393 renal): 14.8 µM and 20.1 µM
TGI (HT29 colon): 18.3 µM and 31.4 µM
GI50 (SK-MEL-28 melanoma): 4.87 µM and 10.8 µM
TGI (SK-MEL-28 melanoma): > 43.2 µM and 23.1 µM
GI50 (KM12 colon): 2.19 µM and 6.02 µM
TGI (KM12 colon): 11 µM and 46.4 µM
GI50 (HS 578T breast): 4.54 µM and 17.7 µM
TGI (HS 578T breast): 16.4 µM and 61.3 µM
GI50 (MOLT-4 leukemia): 1.38 µM and 2.97 µM
TGI (MOLT-4 leukemia): 7.15 µM and 9.9 µM
GI50 (SNB-19 CNS): 5.94 µM and 14.7 µM
TGI (SNB-19 CNS): > 100 µM
TGI (786-0 renal): > 100 µM
GI50 (U251 CNS): 4.17 µM and 8.75 µM
TGI (U251 CNS): > 53.5 µM and 32.4 µM
GI50 (CAKI-1 renal): 2.6 µM and 5.52 µM
TGI (CAKI-1 renal): 8.7 µM and 37.1 µM
GI50 (SK-MEL-5 melanoma): 4 µM and 8.37 µM
TGI (SK-MEL-5 melanoma): 16.8 µM and 24 µM
TGI (K-562 leukemia): > 100 µM and 39.7 µM
GI50 (UACC-62 melanoma): 3.05 µM and 8.55 µM
TGI (UACC-62 melanoma): 8.85 µM and 20.8 µM
GI50 (MALME-3M melanoma): 2.86 µM and 18.5 µM
TGI (MALME-3M melanoma): 12.8 µM and > 100 µM
GI50 (OVCAR-8 ovarian): 2.48 µM and 7.18 µM
TGI (OVCAR-8 ovarian): 13.6 µM and > 100 µM
TGI (NCI-H460 lung): 11.9 µM and 12.9 µM
TGI (OVCAR-3 ovarian): > 46.2 µM and 28 µM
TGI (SR leukemia): 7.25 µM and 10.7 µM
TGI (HCC-2998 colon): 17.6 µM
GI50 (NCI-H226 lung): 3.46 µM and 11.2 µM
TGI (NCI-H226 lung): 19.3 µM and 31.5 µM
TGI (SK-OV-3 ovarian): > 100 µM
GI50 (RPMI-8226 leukemia): 2.45 µM and 7.55 µM
TGI (RPMI-8226 leukemia): 10.2 µM and 39 µM
GI50 (A498 renal): 5.12 µM and 18.4 µM
TGI (A498 renal): 17.1 µM and 43.5 µM
GI50 (SN12C renal): 3.14 µM and 6.46 µM
TGI (SN12C renal): 36.3 µM and 34.9 µM
TGI (EKVX NSCLC): 15.6 µM and 33.9 µM
GI50 (OVCAR-4 ovarian): 3.81 µM and 10.7 µM
TGI (OVCAR-4 ovarian): 19 µM and 26.2 µM
TGI (T-47D breast): > 100 µM
GI50 (ACHN renal): 2.06 µM and 4.8 µM
TGI (ACHN renal): 15.2 µM and > 100 µM
TGI (PC-3 prostate): > 45.9 µM and 23.6 µM
TGI (HL-60(TB) leukemia): 8.22 µM and 17 µM
GI50 (SNB-75 CNS): 3.22 µM and 13.4 µM
TGI (SNB-75 CNS): 12.7 µM and 39.1 µM
TGI (IGROV1 ovarian): 25.5 µM and > 100 µM
GI50 (NCI/ADR-RES ovarian): 2.76 µM and 12.1 µM
TGI (NCI/ADR-RES ovarian): 20.2 µM and > 100 µM
GI50 (SF-268 CNS): 3.95 µM and 8.47 µM
TGI (SF-268 CNS): 17 µM and 40.3 µM
GI50 (M14 melanoma): 4.29 µM and 11.2 µM
TGI (M14 melanoma): > 42.2 µM and 23.6 µM
TGI (MCF7 breast): > 34.8 µM and 36.9 µM
TGI (DU-145 prostate): > 100 µM
TGI (SF-295 CNS): > 40.5 µM and 20.8 µM
GI50 (UACC-257 melanoma): 3.91 µM and 8.6 µM
TGI (UACC-257 melanoma): 35.5 µM and 44 µM
GI50 (HCT-116 colon): 1.8 µM and 4.57 µM
TGI (HCT-116 colon): > 100 µM
GI50 (HOP-92 NSCLC): 3.06 µM and 11.7 µM
TGI (HOP-92 NSCLC): 30.7 µM and 46.7 µM
GI50 (MDA-N): 4.27 µM and 10.4 µM
TGI (MDA-N): 30.1 µM and 23.1 µM
TGI (CCRF-CEM leukemia): > 43.5 µM and 25 µM
TGI (SW-620 colon): > 48.7 µM and 39 µM
GI50 (A549 NSCLC): 3.38 µM and 7.11 µM
TGI (A549 NSCLC): 33.2 µM and 88.7 µM
GI50 (NCI-H522 lung): 2.07 µM and 6.03 µM
TGI (NCI-H522 lung): 10.3 µM and 23.7 µM
TGI (LOX IMVI melanoma): > 31.8 µM and 22.5 µM
GI50 (MDA-MB-231 breast): 5.58 µM and 11.6 µM
TGI (MDA-MB-231 breast): > 60.7 µM and 33.1 µM
GI50 (OVCAR-5 ovarian): 4.12 µM and 11.4 µM
TGI (OVCAR-5 ovarian): 36.9 µM and 40.9 µM
GI50 (UO-31 renal): 2.6 µM and 5.47 µM
TGI (UO-31 renal): 11.6 µM and 37.7 µM
TGI (COLO 205 colon): > 35.9 µM and 17.2 µM
GI50 (HCT-15 colon): 1.14 µM and 4.06 µM
TGI (HCT-15 colon): 7.3 µM and 23.4 µM
TGI (BT-549 breast): 9.09 µM
GI50 (TK-10 renal): 7.63 µM and 31 µM
TGI (TK-10 renal): 70.3 µM and > 100 µM
GI50 (NCI-H23 lung): 3.35 µM and 10.6 µM
TGI (NCI-H23 lung): 11.5 µM and 23.2 µM
